The test system of the assay is anti-phosphotyrosine antibody (MAb PY-20). Description: Method for identifying phosphotyrosine mimics: competitive binding to anti-phosphotyrosine antibody (ELISA). On the set-up: species or system mouse. As to conditions: ELISA criterion: 50% or greater inhibition of anti-phosphotyrosine binding 15 μg/ml; biotinylated peptide ECQ(pY)QPQP. The source says: The present invention also provides a convenient and sensitive method for identifying phosphotyrosine mimics by utilizing anti-phosphotyrosine antibodies to rapidly screen large numbers of non-phosphorylated test compounds. Specifically, this method comprises the steps of:
(a) contacting a non-phosphorylated test compound and a phosphotyrosine-containing substance with an anti-phosphotyrosine antibody; and
(b) detecting the ability of the non-phosphorylated test compound to inhibit the binding of the anti-phosphotyrosine antibody to the phosphotyrosine-containing substance.
A 96 well microtiter plate (Pierce #15126, Reacti-Bind Streptvidin coated polystyrene) was coated with 100 μl of biotinylated peptide ECQ(pY)QPQP (MW=1367.5) at a concentration of 15 nM in Tris Buffered Saline (TBST) (10 mM Tris.HCl, pH 7.5, 100 mM NaCl, 0.1% Tween 20) for 45 minutes at room temperature. The microtiter plate was washed 4 times with TBST. MAb PY-20 (Zymed #03-7799) was pre incubated for 45 minutes at a 2× concentration of 0.078 μg/ml ([…]) with a 2× concentration of non-phosphorylated test compounds in TBST. 100 μl of test compound/antibody solution was added in duplicate to each of the wells and incubated at room temperature. The microtiter plate was washed 4 times with TBST. […] Optical density was measured at 405 nm. […]
(In general: An ELISA detects its analyte on a solid surface through an enzyme-linked reagent.)

The values below come from patent US6071707A, “Phosphotyrosine mimics and method for identifying and using same” (Boehringer Ingelheim Pharmaceuticals, Inc., priority 1997, dated 2000).

With `O=C(O)c1ccccc1` [phenyl carboxylic acid], the “identification as phosphotyrosine mimic (inhibition of anti-phosphotyrosine antibody binding to a phosphotyrosine-containing substance)” value is given as “identified as a phosphotyrosine mimic”.
